PubChem BioAssay AID256 (DTP/NCI, 2004)
Values joined by “and” are separate entries in the source; they are usually repeats but may differ in a detail not shown here. Equal values may be shown once. Toxic doses and inconclusive results are not listed. The calls were made as follows: active = survival T/C of 150% or more; inactive = T/C below 125% in these data.

System: CD2F1 mice, L1210 leukemia ip, survival T/C
Experiment: NCI In Vivo Anticancer Drug Screen. Data for tumor model L1210 Leukemia (intraperitoneal) in CD2F1 (CDF1) mice
Settings: higher = longer survival
Method in brief: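 Implant tumor; dose compound or vehicle; measure endpoint in both groups; report treated divided by control.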

[1] = endpoint: mean survival time, dose: 100.0 mg/kg/injection, schedule: Q01DX001 (ip), vehicle: saline with Tween-80
[2] = endpoint: mean survival time, dose: 200.0 mg/kg/injection, schedule: Q01DX001 (ip), vehicle: saline with Tween-80
[3] = endpoint: mean survival time, dose: 400.0 mg/kg/injection, schedule: Q01DX001 (ip), vehicle: saline with Tween-80
[4] = endpoint: mean survival time, dose: 25.0 mg/kg/injection, schedule: Q01DX009 (ip), vehicle: saline with Tween-80
[5] = endpoint: mean survival time, dose: 50.0 mg/kg/injection, schedule: Q01DX009 (ip), vehicle: saline with Tween-80
[6] = endpoint: mean survival time, dose: 100.0 mg/kg/injection, schedule: Q01DX009 (ip), vehicle: saline with Tween-80
[7] = endpoint: mean survival time, dose: 100.0 mg/kg/injection, schedule: Q01DX001 (ip), vehicle: saline
[8] = endpoint: mean survival time, dose: 200.0 mg/kg/injection, schedule: Q01DX001 (ip), vehicle: saline
[9] = endpoint: mean survival time, dose: 100.0 mg/kg/injection, schedule: Q04DX003 (ip), vehicle: saline with Tween-80
[10] = endpoint: mean survival time, dose: 200.0 mg/kg/injection, schedule: Q04DX003 (ip), vehicle: saline with Tween-80
[11] = endpoint: mean survival time, dose: 400.0 mg/kg/injection, schedule: Q04DX003 (ip), vehicle: saline with Tween-80
[12] = endpoint: mean survival time, dose: 200.0 mg/kg/injection, schedule: Q01DX009 (ip), vehicle: saline with Tween-80
[13] = endpoint: mean survival time, dose: 400.0 mg/kg/injection, schedule: Q01DX001 (ip), vehicle: saline
[14] = endpoint: mean survival time, dose: 400.0 mg/kg/injection, schedule: Q01DX009 (ip), vehicle: saline with Tween-80
[15] = endpoint: mean survival time, dose: 100.0 mg/kg/injection, schedule: Q04DX002 (ip), vehicle: saline with Tween-80
[16] = endpoint: mean survival time, dose: 200.0 mg/kg/injection, schedule: Q04DX002 (ip), vehicle: saline with Tween-80
[17] = endpoint: mean survival time, dose: 400.0 mg/kg/injection, schedule: Q04DX002 (ip), vehicle: saline with Tween-80

Measured: T/C

Cn1cc(NC(=O)c2cc(NC(=O)c3cc(NC=O)cn3C)cn2C)cc1C(=O)NCCC(=N)N
inactive: endpoint: mean survival time, dose: 100.0 mg/kg/injection, schedule: Q04DX003 (ip), vehicle: alcohol 108 % of control | endpoint: mean survival time, dose: 200.0 mg/kg/injection, schedule: Q04DX003 (ip), vehicle: alcohol 102 % of control | endpoint: median survival time, dose: 12.5 mg/kg/injection, schedule: Q01DX009 (ip), vehicle: water 104 % of control | endpoint: median survival time, dose: 25.0 mg/kg/injection, schedule: Q01DX009 (ip), vehicle: water 100 % of control | endpoint: median survival time, dose: 50.0 mg/kg/injection, schedule: Q01DX009 (ip), vehicle: water 103 % of control | endpoint: median survival time, dose: 100.0 mg/kg/injection, schedule: Q01DX009 (ip), vehicle: water 108 % of control

CSCC12CCCC=C1CC1(CC2)OCCO1 (stereo not given)
inactive: [1] 96 % of control | [2] 96 % of control | [3] 96 % of control

CC(=O)OC1CC2C=CCC21 (stereo not given)
inactive: [1] 100 % of control | [2] 96 % of control | [3] 96 % of control

CC(O)C(NC(=O)c1cnc(=O)[nH]c1N)C(=O)O (stereo not given)
inactive: [4] 105 % of control | [5] 102 % of control | [6] 102 % of control

CC(C)(C)C(NO)C(O)N1CCCCC1 (stereo not given)
inactive: [7] 97 % of control | [8] 95 % of control

ClC1(Cl)C2COCOCC21 (stereo not given)
inactive: [1] 91 % of control | [2] 91 % of control | [3] 95 % of control

N#CSCc1ccccc1Cl
inactive: endpoint: mean survival time, dose: 2.5 mg/kg/injection, schedule: Q01DX009 (ip), vehicle: saline sonified 91 % of control | endpoint: mean survival time, dose: 5.0 mg/kg/injection, schedule: Q01DX009 (ip), vehicle: saline sonified 96 % of control | endpoint: mean survival time, dose: 5.0 mg/kg/injection, schedule: Q04DX003 (ip), vehicle: saline with Tween-80 95 % of control | endpoint: mean survival time, dose: 10.0 mg/kg/injection, schedule: Q01DX009 (ip), vehicle: saline sonified 96 % of control | endpoint: mean survival time, dose: 10.0 mg/kg/injection, schedule: Q04DX003 (ip), vehicle: saline with Tween-80 86 % of control

O=C(O)c1ccc(C(=O)O)c(C(=O)O)c1.[NH-]Cc1ccccc1C[NH-].[Pt+2]
inactive: endpoint: mean survival time, dose: 5.0 mg/kg/injection, schedule: Q04DX003 (ip), vehicle: sodium bicarbonate 110 % of control | endpoint: mean survival time, dose: 10.0 mg/kg/injection, schedule: Q04DX003 (ip), vehicle: sodium bicarbonate 110 % of control | endpoint: mean survival time, dose: 20.0 mg/kg/injection, schedule: Q04DX003 (ip), vehicle: sodium bicarbonate 108 % of control | endpoint: mean survival time, dose: 40.0 mg/kg/injection, schedule: Q04DX003 (ip), vehicle: sodium bicarbonate 108 % of control | endpoint: mean survival time, dose: 80.0 mg/kg/injection, schedule: Q04DX003 (ip), vehicle: sodium bicarbonate 96 % of control

Nc1cc(N)c([N+](=O)[O-])cc1[N+](=O)[O-]
inactive: [9] 100 % of control | [10] 91 % of control | [11] 108 % of control

COc1ccc(OC)c(/C=C(\C#N)c2ccc([N+](=O)[O-])cc2)c1
inactive: endpoint: mean survival time, dose: 16.5 mg/kg/injection, schedule: Q01DX009 (ip), vehicle: saline with Tween-80 87 % of control | [4] 87 % of control | [6] 90 % of control | [9] 91 % of control | [12] 86 % of control | [10] 101 % of control

CC(CP(=O)(c1ccccc1)c1ccccc1)C(O)(C(=O)c1ccccc1)c1ccccc1 (stereo not given)
inactive: [6] 95 % of control | [9] 97 % of control | [12] 97 % of control | [10] 94 % of control | [11] 102 % of control

NCS(=O)(=O)O
inactive: [1] 98 % of control

COC(=O)c1[nH]nc(-c2ccc(N)cc2)c1N
inactive: endpoint: mean survival time, dose: 3.13 mg/kg/injection, schedule: Q01DX005 (ip), vehicle: other 114 % of control | endpoint: mean survival time, dose: 6.25 mg/kg/injection, schedule: Q01DX005 (ip), vehicle: other 93 % of control | endpoint: mean survival time, dose: 12.5 mg/kg/injection, schedule: Q01DX005 (ip), vehicle: other 107 % of control | endpoint: mean survival time, dose: 25.0 mg/kg/injection, schedule: Q01DX005 (ip), vehicle: other 93 % of control | endpoint: mean survival time, dose: 50.0 mg/kg/injection, schedule: Q01DX005 (ip), vehicle: other 93 % of control

CCC(=O)c1ccc(OCOc2ccc(C(=O)CC)cc2OC)c(OC)c1
inactive: [7] 94 % of control | [8] 96 % of control | [13] 91 % of control

Cn1ccc(=O)nc1
inactive: endpoint: mean survival time, dose: 100.0 mg/kg/injection, schedule: Q04DX003 (ip), vehicle: saline sonified 102 % of control | endpoint: mean survival time, dose: 200.0 mg/kg/injection, schedule: Q04DX003 (ip), vehicle: saline sonified 104 % of control | endpoint: mean survival time, dose: 400.0 mg/kg/injection, schedule: Q04DX003 (ip), vehicle: saline sonified 104 % of control

C=C1C(=O)OC2CCCCCCC12 (stereo not given)
inactive: endpoint: mean survival time, dose: 50.0 mg/kg/injection, schedule: Q01DX009 (ip), vehicle: saline 102 % of control | endpoint: mean survival time, dose: 100.0 mg/kg/injection, schedule: Q01DX009 (ip), vehicle: saline 97 % of control | endpoint: mean survival time, dose: 200.0 mg/kg/injection, schedule: Q01DX009 (ip), vehicle: saline 100 % of control

[Co+2].[NH-]c1ccccc1C(=O)O.[NH-]c1ccccc1C(=O)O
inactive: [9] 89 % of control | [10] 91 % of control | [11] 91 % of control

Clc1ccccc1/C=C1/c2ccccc2-c2nc3ccccc3cc21
inactive: [6] 97 % of control | [9] 89 % of control | [12] 105 % of control | [10] 100 % of control | [14] 102 % of control | [11] 95 % of control

C[C@]12CC[C@@H]3c4ccc(OC5CCCCO5)cc4CC[C@H]3[C@@H]1CC[C@@H]2O (stereo not given in full)
inactive: endpoint: mean survival time, dose: 600.0 mg/kg/injection, schedule: Q01DX Z (ip), vehicle: steriod suspending solution 108 % of control | endpoint: mean survival time, dose: 800.0 mg/kg/injection, schedule: Q01DX Z (ip), vehicle: steriod suspending solution 101 % of control

Cc1ccc(N=Cc2cc(I)cc(I)c2O)cc1.Cc1ccc(N=Cc2cc(I)cc(I)c2O)cc1.[Co]
inactive: endpoint: mean survival time, dose: 50.0 mg/kg/injection, schedule: Q04DX003 (ip), vehicle: saline 87 % of control | endpoint: mean survival time, dose: 100.0 mg/kg/injection, schedule: Q04DX003 (ip), vehicle: saline 104 % of control | endpoint: mean survival time, dose: 200.0 mg/kg/injection, schedule: Q04DX003 (ip), vehicle: saline 96 % of control

COC1=C(OC)C(=O)C(C/C=C(\C)CC/C=C(\C)CC/C=C(\C)CC/C=C(\C)CC/C=C(\C)CC/C=C(\C)CC/C=C(\C)CC/C=C(\C)CC/C=C(\C)CCC=C(C)C)=C(C)C1=O
inactive: endpoint: mean survival time, dose: 6.25 mg/kg/injection, schedule: Q01DX009 (ip), vehicle: saline with Tween-80 116 % of control and 97 % of control | endpoint: mean survival time, dose: 12.5 mg/kg/injection, schedule: Q01DX009 (ip), vehicle: saline with Tween-80 98 % of control and 100 % of control | [4] 94 % of control and 100 % of control | [5] 97 % of control and 106 % of control | [7] 96 % of control | [6] 94 % of control and 102 % of control | [8] 92 % of control | [12] 97 % of control and 100 % of control | [13] 94 % of control

CCOC(=O)c1ccc(NC(=O)N(CC)c2ccccc2)cc1
inactive: [6] 96 % of control and 100 % of control | [15] 100 % of control and 109 % of control | [9] 94 % of control | [12] 95 % of control and 104 % of control | [16] 92 % of control and 102 % of control | [10] 94 % of control | [14] 96 % of control and 100 % of control | [17] 94 % of control and 98 % of control | [11] 95 % of control

O=[N+]([O-])c1ccc(/C(CBr)=N/N2CCCCCC2)cc1
inactive: [7] 91 % of control | [8] 92 % of control | [13] 95 % of control

COc1ccc(CC(=O)NCCc2ccc3c(c2)OCO3)cc1
inactive: [1] 91 % of control | [2] 87 % of control

CC12COC(=O)C1(C)C1CCC2O1 (stereo not given)
inactive: endpoint: mean survival time, dose: 1.0 mg/kg/injection, schedule: Q04DX002 (ip), vehicle: saline 92 % of control | endpoint: mean survival time, dose: 2.0 mg/kg/injection, schedule: Q04DX002 (ip), vehicle: saline 88 % of control | endpoint: mean survival time, dose: 4.0 mg/kg/injection, schedule: Q04DX002 (ip), vehicle: saline 92 % of control | endpoint: mean survival time, dose: 5.0 mg/kg/injection, schedule: Q01DX002 (ip), vehicle: saline with Tween-80 100 % of control | endpoint: mean survival time, dose: 10.0 mg/kg/injection, schedule: Q01DX002 (ip), vehicle: saline with Tween-80 108 % of control

NC(=O)NC(=S)NC(=O)c1ccccc1
inactive: [6] 111 % of control | [9] 102 % of control | [12] 98 % of control | [10] 98 % of control | [14] 98 % of control | [11] 101 % of control

O=C([O-])[O-].O=S(=O)(O)O.[Co+3].[NH2-].[NH2-].[NH2-].[NH2-]
inactive: [15] 100 % of control | [17] 107 % of control

O=C(O)Cc1ccncc1
inactive: [9] 97 % of control | [10] 100 % of control | [11] 97 % of control

COC(=O)C(Cc1[nH]c(N=Nc2ccc(Br)cc2)nc1N=Nc1ccc(Br)cc1)NC(C)=O (stereo not given)
inactive: [15] 93 % of control | [16] 96 % of control | [17] 96 % of control
